Measured values from PubChem BioAssay AID1259408 (Genetic Toxicology Data Bank (GENE-TOX), 2018).
Calls of active or inactive are those of the source. No rule for the calls is given here.

Tested on: GENE-TOX genotoxicity assays, various organisms and cells
Assay: GENE-TOX mutagenicity studies
Conditions: for call: Assay Type: In vivo carcinogenicity studies
[1] = Species/Cell Type: Chinese hamster ovary (CHO) cells, Assay Type: Forward gene mutation at the HPRT locus, Assay Code: CHO+, Evaluation Type: Evaluation B (Post-1980)
[2] = Species/Cell Type: Nonhuman, Assay Type: Sister-chromatid exchange (SCE) in vitro, Assay Code: SC2+, Evaluation Type: Evaluation B (Post-1980)
[3] = Species/Cell Type: Bacillus subtilis (H17 vs M45), Assay Type: Rec-assay, spot test, DNA effects (bacterial DNA repair), Assay Code: REW+, Evaluation Type: Evaluation A (Pre-1980)
[4] = Species/Cell Type: Salmonella typhimurium (one or more of the five standard strains: TA98, TA100, TA1535, TA1537, and TA1538), Assay Type: Histidine reverse gene mutation, Ames assay, Assay Code: SAL+, Evaluation Type: Evaluation A (Pre-1980)
[5] = Species/Cell Type: Salmonella typhimurium, Assay Type: Forward and reverse gene mutation, host-mediated assay, Assay Code: HMA+, Evaluation Type: Evaluation A (Pre-1980)
[6] = Species/Cell Type: Nonhuman, Assay Code: CCG+L, Evaluation Type: Evaluation A (Pre-1980)
[7] = Species/Cell Type: Salmonella typhimurium (one or more of the five standard strains: TA98, TA100, TA1535, TA1537, and TA1538), Assay Type: Histidine reverse gene mutation, Ames assay, Assay Code: SAL+*, Activation: With metabolic activation, Evaluation Type: Evaluation A (Pre-1980)
[8] = Species/Cell Type: Nonhuman, Assay Type: Sister-chromatid exchange (SCE) in vitro, Assay Code: SC2+D, Dose Response: With dose response, Evaluation Type: Evaluation B (Post-1980)
[9] = Species/Cell Type: Escherichia coli polA (W3119 vs P3478), Assay Type: Rec-assay, DNA effects (bacterial DNA repair), Assay Code: RE1+, Evaluation Type: Evaluation A (Pre-1980)
[10] = Species/Cell Type: Salmonella typhimurium (one or more of the five standard strains: TA98, TA100, TA1535, TA1537, and TA1538), Assay Type: Histidine reverse gene mutation, Ames assay, Assay Code: SALT, Evaluation Type: Evaluation A (Pre-1980)
[11] = Species/Cell Type: Vicia faba, Assay Type: Chromosome aberrations, Assay Code: VIC+D, Dose Response: With dose response, Evaluation Type: Evaluation A (Pre-1980)

COc1cc([C@@H]2c3cc4c(cc3[C@@H](O[C@@H]3O[C@@H]5CO[C@@H](c6cccs6)O[C@H]5[C@H](O)[C@H]3O)[C@H]3COC(=O)[C@H]23)OCO4)cc(OC)c1O
mutagenic call [1]: active; positive
mutagenic call [2]: active; positive

COc1ccc(-c2oc3c(OC)c(OC)c(OC)cc3c(=O)c2OC)cc1
mutagenic call [3]: active; positive

[Cl][Sn]([Cl])([Cl])[Cl]
mutagenic call (Species/Cell Type: Bacillus subtilis (H17 vs M45), Assay Type: Rec-assay, spot test, DNA effects (bacterial DNA repair), Assay Code: REW-, Evaluation Type: Evaluation A (Pre-1980)): inactive; negative

O=S(=O)(O)c1ccc(N=Nc2cc(S(=O)(=O)O)c3ccccc3c2O)c2ccccc12
mutagenic call (Species/Cell Type: Bacillus subtilis (H17 vs M45), Assay Type: Rec-assay, spot test, DNA effects (bacterial DNA repair), Assay Code: REWT, Evaluation Type: Evaluation A (Pre-1980)): no conclusion
call (Species/Cell Type: Nonhuman, Assay Code: CCG-, Evaluation Type: Evaluation A (Pre-1980)): inactive; negative
mutagenic call (Species/Cell Type: Saccharomyces cerevisiae, Assay Type: Mitotic recombination or gene conversion, Assay Code: YEC-, Evaluation Type: Evaluation A (Pre-1980)): inactive; negative
mutagenic call (Species/Cell Type: Salmonella typhimurium (one or more of the five standard strains: TA98, TA100, TA1535, TA1537, and TA1538), Assay Type: Histidine reverse gene mutation, Ames assay, Assay Code: SAL-, Evaluation Type: Evaluation A (Pre-1980)): inactive; negative

CS(C)=O.CS(C)=O.CS(C)=O.CS(C)=O.[Cl][Ru][Cl]
mutagenic call [4]: active; positive

COC(=O)Nc1ncc(-c2ccc(OC)cc2)[nH]1
mutagenic call [5]: active; positive

Cc1cccc2cc3c(ccc4ccccc43)cc12
call [6]: active; positive
mutagenic call [2]: active; positive
mutagenic call [7]: active; positive
mutagenic call (Species/Cell Type: Syrian hamster embryo (SHE) cells, Assay Type: Cell transformation, clonal assay, Assay Code: CTC-, Evaluation Type: Evaluation A (Pre-1980)): inactive; negative

F[Si-2](F)(F)(F)(F)F
mutagenic call (Species/Cell Type: Mammalian polychromatic erythrocytes, Assay Type: Micronucleus test, chromosome aberrations, Assay Code: MNTT, Evaluation Type: Evaluation B (Post-1980)): no conclusion

CN(N=O)C(=O)Nc1ccc(Cl)cc1
mutagenic call [8]: active; positive

C=CC1=C(C)/C(=C/c2[nH]c(Cc3[nH]c(/C=C4\NC(=O)C(C)=C4C=C)c(C)c3CCC(=O)O)c(CCC(=O)O)c2C)NC1=O
mutagenic call (Species/Cell Type: Human lymphocytes, Assay Type: Sister-chromatid exchange (SCE) in vitro, Assay Code: SCL-, Evaluation Type: Evaluation A (Pre-1980)): inactive; negative
mutagenic call (Species/Cell Type: Human, Assay Type: Sister-chromatid exchange (SCE) in vitro, Assay Code: SC1-, Evaluation Type: Evaluation A (Pre-1980)): inactive; negative

NC(=O)NO
mutagenic call (Species/Cell Type: Chinese hamster lung (V79) cells, Assay Type: Forward gene mutation at the HPRT or ouabain locus, Assay Code: V79-, Evaluation Type: Evaluation A (Pre-1980)): inactive; negative
mutagenic call [9]: active; positive
mutagenic call (Species/Cell Type: Human lymphocytes or leukocytes, Assay Type: Chromosome aberrations in vitro, Assay Code: CY7+, Evaluation Type: Evaluation A (Pre-1980)): active; positive
mutagenic call (Species/Cell Type: Mammalian polychromatic erythrocytes, Assay Type: Micronucleus test, chromosome aberrations, Assay Code: MNTT, Evaluation Type: Evaluation A (Pre-1980)): no conclusion
mutagenic call (Species/Cell Type: Mouse (BALB/c-3T3) cells, Assay Type: Cell transformation, Assay Code: CTB-, Evaluation Type: Evaluation A (Pre-1980)): inactive; negative
mutagenic call (Species/Cell Type: Mouse, Sex: Male, Assay Type: Sperm morphology, Assay Code: SPI+, Evaluation Type: Evaluation A (Pre-1980)): active; positive
call (Species/Cell Type: Nonhuman, Assay Code: CCGT, Evaluation Type: Evaluation A (Pre-1980)): no conclusion
mutagenic call [8]: active; positive
mutagenic call (Species/Cell Type: Nonhuman, Assay Type: Sister-chromatid exchange (SCE) in vitro, Assay Code: SC2-, Evaluation Type: Evaluation A (Pre-1980)): inactive; negative
mutagenic call (Species/Cell Type: Saccharomyces cerevisiae, Assay Type: Mitotic recombination or gene conversion, Assay Code: YEC+, Evaluation Type: Evaluation A (Pre-1980)): active; positive
mutagenic call (Species/Cell Type: Syrian hamster embryo (SA7/SHE) cells, Assay Type: Cell transformation, viral enhanced, Assay Code: CT7+, Evaluation Type: Evaluation A (Pre-1980)): active; positive
mutagenic call (Species/Cell Type: Tradescantia species, Assay Type: Chromosome aberrations, Assay Code: TRC+, Evaluation Type: Evaluation A (Pre-1980)): active; positive

O[C@@H]1C=Cc2c(ccc3cc4c(ccc5ccccc54)cc23)[C@H]1O
call [6]: active; positive
mutagenic call [8]: active; positive
mutagenic call [7]: active; positive

COc1cc(Cl)c(OC)cc1Cl
mutagenic call (Species/Cell Type: Aspergillus nidulans, Assay Type: Aneuploidy, chromosome aberrations, Assay Code: ASN+, Evaluation Type: Evaluation A (Pre-1980)): active; positive
mutagenic call (Species/Cell Type: Aspergillus nidulans, Assay Type: Mitotic recombination, Assay Code: ASG+, Evaluation Type: Evaluation A (Pre-1980)): active; positive

N.N.[Cl-].[Cl-].[Cl-].[Cl-].[Pt+4]
mutagenic call [2]: active; positive

Nc1ccc(C(=O)O)c(O)c1
mutagenic call (Species/Cell Type: Escherichia coli polA (W3119 vs P3478), Assay Type: Rec-assay, DNA effects (bacterial DNA repair), Assay Code: RE1T, Evaluation Type: Evaluation A (Pre-1980)): no conclusion

ClCCBr
mutagenic call [1]: active; positive
mutagenic call [9]: active; positive

Nc1c(N=Nc2ccc(S(=O)(=O)O)cc2)cc(N=Nc2ccc(S(=O)(=O)O)cc2)c(N)c1N=Nc1ccc(S(=O)(=O)O)cc1
mutagenic call [10]: no conclusion

CS(=O)(=O)OCCCl
mutagenic call (Species/Cell Type: Arabidopsis species, Assay Type: Gene mutation, Assay Code: ARM+, Evaluation Type: Evaluation A (Pre-1980)): active; positive
mutagenic call (Species/Cell Type: Drosophila melanogaster, Assay Type: Sex-linked recessive lethal gene mutation, Assay Code: SRL+, Evaluation Type: Evaluation A (Pre-1980)): active; positive
mutagenic call (Species/Cell Type: Drosophila melanogaster, Sex: Male, Assay Type: Heritable translocation test, chromosome aberrations, Assay Code: DHT+, Evaluation Type: Evaluation A (Pre-1980)): active; positive
mutagenic call [11]: active; positive

CCN(CC)C(=O)OC1(SC)C(=O)c2ccccc2C1=O
mutagenic call [5]: active; positive

O=NN1CCCNC1=O
mutagenic call [4]: active; positive

COC(=O)CCN1CC1
mutagenic call (Species/Cell Type: Schizosaccharomyces pombe, Assay Type: Reverse gene mutation, Assay Code: YEZ+, Evaluation Type: Evaluation A (Pre-1980)): active; positive

C=CCOc1ccccc1OCC(O)CNC(C)C (stereo unspecified)
mutagenic call (Species/Cell Type: Mammalian polychromatic erythrocytes, Assay Type: Micronucleus test, chromosome aberrations, Assay Code: MNT+, Evaluation Type: Evaluation B (Post-1980)): active; positive

COc1cc(N=Nc2ccccc2)ccc1[N+](=O)[O-]
mutagenic call [4]: active; positive

Cc1cc2ccccc2c2ccc3c(c12)CCC3=O
mutagenic call [7]: active; positive

O=S(=O)(c1ccc(Cl)cc1)c1cc(Cl)c(Cl)cc1Cl
mutagenic call [11]: active; positive

C=C(C)C(=O)/C(=C\C(=O)O)OC
mutagenic call [3]: active; positive
call [6]: active; positive
mutagenic call (Species/Cell Type: Saccharomyces cerevisiae, Assay Type: Mitotic recombination or gene conversion, Assay Code: YEH-, Evaluation Type: Evaluation A (Pre-1980)): inactive; negative
mutagenic call [10]: no conclusion

Nc1ccnc(=O)[nH]1
mutagenic call (Species/Cell Type: Drosophila melanogaster, Assay Type: Sex-linked recessive lethal gene mutation, Assay Code: SRLT, Evaluation Type: Evaluation A (Pre-1980)): no conclusion
